This is an account of results in patent publication US8759010B2, “Host cell kinases as targets for antiviral therapies against HCV infection” (INSERM (Institut National de la Sante et de la Recherche …, priority 2008, dated 2014).

For series [1], the system named is HCVcc Luc-Jc1, genotype 2a/2a. Nature of the series: microbe, parasite or virus in culture. It counts as cell-based, HCV. Particulars: for IC50: Hepatitis C virus, hepatocytes or hepatocyte-derived cell lines, FIG. 9, read-out: IC50, inhibition of HCV entry and infection.
The subject of series [2] is subgenomic HCV JFH1 replicon. Nature of the series: HCV replication, subgenomic JFH1 replicon, Northern blot. The series is classed as cell-based. As to conditions: Huh7.5 cells electroporated with subgenomic JFH1 replicon RNA, 24 h incubation, FIG. 9C. The source says: HEK 293T, Huh7 and Huh7.5.1 cells used in the present study have previously been described (Bartosch, 2003; Barth, 2003; Zhong, 2005). Primary human hepatocytes were isolated and cultured as previously described (David, 1998, which is incorporated herein by reference in its entirety). Subgenomic HCV replicon JFH1-SGR used herein has also previously been described (Kato, 2005).
A 9.7 kb fragment derived from plasmid […] (Wakita, 2005) digested with XbaI and EcoRI was labeled with α^32P-CTP using NEBlot kit (NEB, USA). Northern blotting was performed according to standard protocols (F. M. Ausubel et al., “Current Protocols in Molecular Biology”, John Wiley 1 Sons, Inc., 2007).
Electroporation of RNA derived from plasmids pSGR-JFH1 was performed as previously described (Lan, 2008). Four hours after electroporation, cells were incubated with protein kinase inhibitors in cell culture supernatant for 24 hours. Total RNA was isolate and analyzed by Northern blot analysis of HCV RNA as described (Lohmann, 1999).
For orientation: A replicon is a self-replicating genome or part of one, used to study replication in cells.

In the next series the test system is HCVpp JFH1; genotype 2a. The series is described as follows: HCVpp entry in primary human hepatocytes. The series is classed as cell-based, HCV. Particulars: JFH1-derived HCVpp; inhibitor added 1 h prior to infection; FIG. 9B.
Series [3] concerns HCVpp (genotype 1b) bearing envelope glycoproteins from HCV strains VD, VH, VK, VN. Nature of the series: Entry of patient-derived HCVpp in primary human hepatocytes. It counts as cell-based. As to conditions: 10 μM, 1 h prior to infection, FIG. 10C.
A further series has as its system Huh7.5 cells. Nature of the series: MTT cell viability, Huh7.5 cells. The series is classed as cell-based, human. Particulars: 10 μM, FIG. 7C. As for the experimental part: (§1) Toxicity Assays. Cytotoxicity effects on cells were assessed in triplicates by analyzing the ability to metabolize 3-(4,5-dimethylthiazol-2-yl)-2,5-diphenyltetrazolium bromide (MTT) (Lan, 2008). For siRNA experiments, MTT was added 3 days after transfection with siRNA for 5 hours. The final concentration of MTT was 0.6 mg/mL. Formazan crystals produced by the cells were solubilized and measured as described (Mosmann, 1983). 2. Identification of Cellular Kinases Involved in HCV Entry Using a Genome-Wide RNAi Kinase HCV Entry Screen

Another series deals with Huh7.5.1 cells. The series is described as follows: MTT cell viability, Huh7.5.1 cells. Particulars: 10 μM, FIG. 7D. The series is classed as cell-based, human. The protocol: as §1
For series [4] the following is noted: achievable plasma concentrations; Hidalgo and Bloedow, 2003; cited from earlier work.
The test system of another series is HCVcc JFH1. Nature of the series: HCVcc infection of Huh7.5.1 cells, luciferase reporter or RT-PCR of HCV RNA (Example 1). The series is classed as cell-based. As to conditions: 1 μM or 10 μM inhibitor, dose-dependent, FIG. 3. As for the experimental part:
Bicistronic plasmid pFK-Luc-Jc1 (Koutsoudakis, 2006) encodes a luciferase reporter gene and a chimeric HCV genome designated Jc1 which consists of J6CF and JFH1 segments. In vitro HCV RNA synthesis and RNA transfection were carried out as previously described (Wakita, 2005). Culture supernatants from transfected cells were cleared and concentrated as previously described using an Amicon Ultra 15 (Millipore, USA) and used directly or were stored at 4° C. or −80° C. Viruses were titrered by using the limiting dilution assay on Huh7.5.1 cells with a few minor modifications and TCID50 values were calculated based on a method previously described (Lindenbach, 2005).
All inhibitors used in this study were obtained from LC Laboratories (USA). Before use, they were dissolved in DMSO and diluted in Huh7.5.1 cell culture medium (Zhong, 2005). Following incubation, HCVpp entry and HCVcc infection were assessed by luciferase reporter gene expression or RT-PCR of HCV RNA in cells as previously reported (Pestka, 2007; Zeisel, 2007).
Background: In a reporter assay the amount or activity of a reporter protein is the signal.

A further series relates to HCVpp H77C, genotype 1a. The series is described as follows: HCVpp entry in hepatoma cells, luciferase reporter (Example 1). It counts as cell-based, HCV. As to conditions: Huh7.5.1 cells, 1 μM or 10 μM inhibitor, 1 h prior to 3 h post-infection, FIG. 3.
In series [5] the test system is HCVpp (genotype 1b) bearing envelope glycoproteins from HCV strains VD, VH, VK, VN. Nature of the series: Entry of patient-derived HCVpp in Huh7.5 cells. The series is classed as cell-based. Particulars: 10 μM, 1 h prior to infection, FIG. 10B.
The subject of series [6] is primary human hepatocytes. The series is described as follows: MTT cell viability, primary human hepatocytes. It counts as cell-based. The protocol: Toxicity Assays. […] For siRNA experiments, MTT was added 3 days after transfection with siRNA for 5 hours. The final concentration of MTT was 0.6 mg/mL. […] 2.
The subject of the next series is HCVpp. Nature of the series: HCVpp entry in primary human hepatocytes (Flavopiridol). As to conditions: HCVpp strain not stated.

One may read the IC50 as the midpoint of a concentration-inhibition curve.

“Also recorded” adds a separate entry of the source. Read-outs that look alike come from different tables or passages of the source.

For the molecule `Cc1nc(Nc2ncc(C(=O)Nc3c(C)cccc3Cl)s2)cc(N2CCN(CCO)CC2)n1` [Dasatinib], the IC50 in series [1] worked out at 2000 nM. For the same molecule, the HCV replication entry in series [2] is “did not inhibit”. Besides, in the series on HCVpp JFH1; genotype 2a, the “HCVpp entry in primary human hepatocytes” value is “markedly inhibited”. Also, the “Entry of patient-derived HCVpp in primary human hepatocytes” value in series [3] is “markedly inhibited”.
Turning to `c1cc(-c2cnn3cc(-c4ccc(OCCN5CCCCC5)cc4)cnc23)ccn1` [Dorsomorphin], the entries for the “Cell viability (MTT assay)” value in the series on Huh7.5 cells and in the series on Huh7.5.1 cells were “not diminished” and “slightly reduced”, respectively.
As for `C#Cc1cccc(Nc2ncnc3cc(OCCOC)c(OCCOC)cc23)c1` [Erlotinib], the HCVcc infection result in series [1] (HCVcc Luc-Jc1, inhibitor added 1 h prior to infection, dose-dependent, FIG. 9A) is recorded as “dose-dependently inhibited; also recorded: markedly inhibited”; in the series on HCVcc JFH1, “markedly inhibit”. The IC50 in series [1] (Hepatocyte) was around 500 nM. In addition, the “Inhibitory effect on HCVcc infection by detection of viral RNA using RT-PCR” value in [1] (data not shown) was “confirmed”. In addition, the mean plasma concentrations in series [4] is around 4 µM. For the same molecule, in series [2], the HCV replication result is “without markedly modulating replication; also recorded: did not inhibit”. Besides, in the series with HCVpp JFH1; genotype 2a, the “HCVpp entry in primary human hepatocytes” value was “dose-dependently inhibited”. For the same molecule, the HCVpp entry result in the series with HCVpp H77C, genotype 1a is on record as “markedly inhibit”. The “Entry of patient-derived HCVpp in Huh7.5 cells” value (from here on “Entry … in Huh7.5 cells”) in series [5] is listed as “markedly inhibited; also recorded: more potent than Dasatinib”. For the same molecule, in [3], the “Entry of patient-derived HCVpp in primary human hepatocytes” value is on record as “markedly inhibited”.
For `CN1CC[C@H](c2c(O)cc(O)c3c(=O)cc(-c4ccccc4Cl)oc23)[C@H](O)C1` [Flavopiridol], in series [6], the Cytotoxic effects entry is on record as “absence of any detectable cytotoxic effects”. Further, the “HCVpp entry in primary human hepatocytes” value in the series on HCVpp is “markedly inhibited”.
In the case of `COc1cc2ncnc(Nc3ccc(F)c(Cl)c3)c2cc1OCCCN1CCOCC1` [Gefitinib], the HCVcc infection entry with HCVcc JFH1 is “markedly inhibit”. For the same molecule, the HCVpp entry entry in the series on HCVpp H77C, genotype 1a was “markedly inhibit”.
As to `CS(=O)(=O)CCNCc1ccc(-c2ccc3ncnc(Nc4ccc(OCc5cccc(F)c5)c(Cl)c4)c3c2)o1` [Lapatinib], the HCVcc infection result with HCVcc JFH1 was “markedly inhibit”. Also, the HCVpp entry entry in the series with HCVpp H77C, genotype 1a is recorded as “markedly inhibit”.
`N#Cc1cnc2cnc(NCc3cccnc3)cc2c1Nc1ccc(F)c(Cl)c1` [TpI2 kinase inhibitor]: the “Entry … in Huh7.5 cells” value in series [5] is on record as “did not result in a reproducible inhibition”.
As for `COC[C@H]1OC(=O)c2coc3c2[C@@]1(C)C1=C(C3=O)[C@@H]2CCC(=O)[C@@]2(C)C[C@H]1OC(C)=O` [Wortmannin], the “HCVpp entry in primary human hepatocytes” value with HCVpp JFH1; genotype 2a is given as “did not have any effect”. The “Entry … in Huh7.5 cells” value in series [5] is “did not inhibit”.
